From the supplement of paper PMC11061612

Experiments:
Experiment in all cases: Bliss excess, mean over the matrix (fraction); higher = more synergy
MG-63 (Osteosarcoma) = tested on: MG-63 (Osteosarcoma)
Procedure, shortened: (§1)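 Cell lines grown in DMEM/F12 or RPMI with 10% FBS were plated in 1536-well plates and held 24 hours at 37°C, 5% CO2 before 72 hours of exposure to two-drug dose matrices, with DMSO typically at 0.2%. CellTiter-Glo 2.0 luminescence gave viability, which was converted to inhibition. Vehicle wells were set to 0 and blank wells to 1. Combination Emax is the second-highest inhibition in the matrix, and Bliss excess is the observed combination effect minus the expected EA + EB − EA·EB, where EA and EB are the single-agent effects.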

[1] = tested on: MDA-MB-175-VII (Breast Carcinoma)
Procedure, shortened: as §1

[2] = tested on: NCI-H1435 (Non-Small Cell Lung Carcinoma)
Procedure, shortened: as §1

[3] = tested on: COR-L105 (Lung Adenocarcinoma)
Procedure, shortened: as §1

[4] = tested on: CAL-85-1 (Breast Carcinoma)
Procedure, shortened: as §1

[5] = tested on: SBC-3 (Small Cell Lung Carcinoma)
Procedure, shortened: as §1

GCIY (Gastric Carcinoma) = tested on: GCIY (Gastric Carcinoma)
Procedure, shortened: as §1

SK-MEL-24 (Melanoma) = tested on: SK-MEL-24 (Melanoma)
Procedure, shortened: as §1

[6] = tested on: NCI-H835 (Other Solid Carcinomas)
Procedure, shortened: as §1

[7] = tested on: KNS-62 (Squamous Cell Lung Carcinoma)
Procedure, shortened: as §1

[8] = tested on: NCI-H1048 (Small Cell Lung Carcinoma)
Procedure, shortened: as §1

[9] = tested on: OCI-M1 (Acute Myeloid Leukemia)
Procedure, shortened: as §1

[10] = tested on: NCI-H2170 (Squamous Cell Lung Carcinoma)
Procedure, shortened: as §1

[11] = tested on: TOV-21G (Ovarian Carcinoma)
Procedure, shortened: as §1

[12] = tested on: BT-474 (Breast Carcinoma)
Procedure, shortened: as §1

[13] = tested on: TK (B-Cell Non-Hodgkin's Lymphoma)
Procedure, shortened: as §1

DK-MG (Glioblastoma) = tested on: DK-MG (Glioblastoma)
Procedure, shortened: as §1

[14] = tested on: NCI-H1975 (Lung Adenocarcinoma)
Procedure, shortened: as §1

[15] = tested on: Daudi (Burkitt's Lymphoma)
Procedure, shortened: as §1

[16] = tested on: NCI-H1944 (Lung Adenocarcinoma)
Procedure, shortened: as §1

| SMILES | Bliss excess (MG-63 (Osteosarcoma)) | Bliss excess [1] | Bliss excess [2] | Bliss excess [3] | Bliss excess [4] | Bliss excess [5] | Bliss excess (GCIY (Gastric Carcinoma)) | Bliss excess (SK-MEL-24 (Melanoma)) | Bliss excess [6] | Bliss excess [7] | Bliss excess [8] | Bliss excess [9] | Bliss excess [10] | Bliss excess [11] | Bliss excess [12] | Bliss excess [13] | Bliss excess (DK-MG (Glioblastoma)) | Bliss excess [14] | Bliss excess [15] | Bliss excess [16] |
| --- | --- | --- | --- | --- | --- | --- | --- | --- | --- | --- | --- | --- | --- | --- | --- | --- | --- | --- | --- | --- |
| CN(CCO)CC[C@H](CSc1ccccc1)Nc1ccc(S(=O)(=O)NC(=O)c2ccc(N3CCC([C@@H](O)c4ccccc4-c4ccc(Cl)cc4)CC3)cc2)cc1S(=O)(=O)C(F)(F)F [AZD4320] + CS(=O)(=O)CCNCc1ccc(-c2ccc3ncnc(Nc4ccc(OCc5cccc(F)c5)c(Cl)c4)c3c2)o1 [Lapatinib] (first compound max 1 µM, 7x7, partner max 10 µM) | -0.0176 | 0.0728 | 0.0765 | -0.0212 | 0.0241 | 0.052 | 0.0352 | 0.0316 | 0.0449 | -0.0185 | – | – | – | – | – | – | – | – | – | – |
| C[C@@H](Oc1cc(-c2cnn(C3CCNCC3)c2)cnc1N)c1c(Cl)ccc(F)c1Cl [Crizotinib] + Cn1cnc2c(F)c(Nc3ccc(Br)cc3Cl)c(C(=O)NOCCO)cc21 [Selumetinib] (first compound max 10 µM, 7x7, partner max 10 µM) | -0.0017 | 0.0011 | -0.0088 | -0.0146 | -0.055 | -0.0502 | -0.0266 | -0.0034 | -0.0653 | -0.042 | – | – | – | – | – | – | – | – | – | – |
| C[C@@H](Nc1cc(F)cc(F)c1)c1cc(C(=O)N(C)C)cc2c(=O)cc(N3CCOCC3)oc12 [AZD8186] + CC(=O)c1c(C)c2cnc(Nc3ccc(N4CCNCC4)cn3)nc2n(C2CCCC2)c1=O [Palbociclib] (first compound max 10 µM, 7x7, partner max 10 µM) | 0.0535 | -0.0148 | 0.0802 | 0.0059 | -0.0529 | 0.0742 | 0.0171 | 0.0814 | 0.0763 | -0.0035 | – | – | – | – | – | – | – | – | – | – |
| C=CCn1c(=O)c2cnc(Nc3ccc(N4CCN(C)CC4)cc3)nc2n1-c1cccc(C(C)(C)O)n1 [AZD1775] + Nc1ccn([C@@H]2O[C@H](CO)[C@@H](O)C2(F)F)c(=O)n1 [Gemcitabine] (first compound max 1 µM, partner max 0.3 µM) | 0.0581 | -0.0105 | -0.0012 | -0.0263 | 0.0733 | -0.0105 | 0.0465 | 0.0069 | -0.0789 | 0.0179 | – | – | – | – | – | – | – | – | – | – |
| CC1(C)CCC(CN2CCN(c3ccc(C(=O)NS(=O)(=O)c4ccc(NCC5CCOCC5)c([N+](=O)[O-])c4)c(Oc4cnc5[nH]ccc5c4)c3)CC2)=C(c2ccc(Cl)cc2)C1 [Venetoclax] + CS(=O)(=O)CCNCc1ccc(-c2ccc3ncnc(Nc4ccc(OCc5cccc(F)c5)c(Cl)c4)c3c2)o1 [Lapatinib] (first compound max 1 µM, 7x7, partner max 10 µM) | 0.0029 | 0.0085 | 0.0073 | -0.0535 | -0.044 | -0.0339 | -0.0655 | -0.0188 | -0.0206 | -0.0116 | – | – | – | – | – | – | – | – | – | – |
| Cc1c2c(nn1C)CSCc1cc(n(C)n1)CSc1cc(c3ccccc3c1)OCCCc1c(C(=O)O)n(C)c3c-2c(Cl)ccc13 [AZD5991] + Cn1cnc2c(F)c(Nc3ccc(Br)cc3Cl)c(C(=O)NOCCO)cc21 [Selumetinib] (first compound max 1 µM, 7x7, partner max 3 µM) | -0.042 | -0.0217 | 0.0727 | -0.0263 | -0.0162 | -0.0674 | -0.0633 | 0.0006 | – | -0.0171 | -0.0224 | 0.03 | -0.0377 | 0.0121 | -0.0205 | -0.009 | 0.0143 | 0.0208 | 0.0545 | 0.027 |
| CC1(C)CCC(CN2CCN(c3ccc(C(=O)NS(=O)(=O)c4ccc(NCC5CCOCC5)c([N+](=O)[O-])c4)c(Oc4cnc5[nH]ccc5c4)c3)CC2)=C(c2ccc(Cl)cc2)C1 [Venetoclax] + Cn1cnc2c(F)c(Nc3ccc(Br)cc3Cl)c(C(=O)NOCCO)cc21 [Selumetinib] (first compound max 1 µM, 7x7, partner max 3 µM) | -0.0292 | -0.0556 | 0.0021 | -0.0491 | -0.0368 | -0.032 | -0.12 | -0.0001 | – | -0.047 | -0.0067 | -0.0203 | -0.0427 | 0.0133 | -0.0419 | -0.0251 | -0.0177 | -0.0631 | -0.0208 | -0.0356 |
| CN(CCO)CC[C@H](CSc1ccccc1)Nc1ccc(S(=O)(=O)NC(=O)c2ccc(N3CCC([C@@H](O)c4ccccc4-c4ccc(Cl)cc4)CC3)cc2)cc1S(=O)(=O)C(F)(F)F [AZD4320] + C=CCn1c(=O)c2cnc(Nc3ccc(N4CCN(C)CC4)cc3)nc2n1-c1cccc(C(C)(C)O)n1 [AZD1775] (first compound max 1 µM, partner max 1 µM) | -0.0262 | 0.0035 | 0.0482 | 0.0129 | 0.0019 | -0.0172 | 0.0735 | 0.001 | – | -0.0543 | 0.27 | 0.0479 | 0.0131 | -0.0299 | -0.0232 | 0.0407 | -0.0789 | 0.0195 | -0.0249 | 0.0312 |
| CCN(CCO)CCCOc1ccc2c(Nc3cc(CC(=O)Nc4cccc(F)c4)[nH]n3)ncnc2c1 [AZD2811] + C=CCn1c(=O)c2cnc(Nc3ccc(N4CCN(C)CC4)cc3)nc2n1-c1cccc(C(C)(C)O)n1 [AZD1775] (first compound max 1 µM, partner max 1 µM) | -0.0052 | -0.0427 | -0.0181 | -0.0415 | -0.0258 | 0.11 | 0.0503 | -0.0378 | – | -0.0339 | 0.0662 | 0.058 | 0.051 | 0.0317 | -0.0442 | 0.0069 | 0.0373 | 0.0001 | 0.0733 | 0.0422 |
| CCN(CCO)CCCOc1ccc2c(Nc3cc(CC(=O)Nc4cccc(F)c4)[nH]n3)ncnc2c1 [AZD2811] + C[C@@H]1COCCN1C2=NC(=NC(=C2)C3(CC3)[S@](=N)(=O)C)C4=C5C=CNC5=NC=C4 [AZD6738] (first compound max 1 µM, 7x7, partner max 10 µM) | 0.011 | -0.0307 | -0.0311 | -0.0679 | 0.0098 | -0.0369 | -0.0326 | -0.0914 | – | -0.0546 | -0.0304 | 0.0009 | -0.0191 | -0.0548 | -0.0291 | -0.0108 | -0.0146 | 0.0002 | 0.0457 | -0.0415 |
| C=CCn1c(=O)c2cnc(Nc3ccc(N4CCN(C)CC4)cc3)nc2n1-c1cccc(C(C)(C)O)n1 [AZD1775] + O=C(c1cc(Cc2n[nH]c(=O)c3ccccc23)ccc1F)N1CCN(C(=O)C2CC2)CC1 [Olaparib] (first compound max 1 µM, partner max 10 µM) | -0.0548 | -0.0351 | 0.0211 | -0.0881 | -0.055 | 0.0028 | -0.0521 | -0.0194 | – | -0.0293 | -0.0389 | -0.0374 | -0.008 | -0.0126 | -0.0611 | -0.0318 | -0.054 | -0.0248 | 0.0043 | -0.043 |
| CC1(C)CCC(CN2CCN(c3ccc(C(=O)NS(=O)(=O)c4ccc(NCC5CCOCC5)c([N+](=O)[O-])c4)c(Oc4cnc5[nH]ccc5c4)c3)CC2)=C(c2ccc(Cl)cc2)C1 [Venetoclax] + CN(C)CCCOc1ccc(-c2ccc3ncc4c(c3c2)n(C2CCOCC2)c(=O)n4C)cn1 [AZD0156] (first compound max 1 µM, 7x7, partner max 1 µM) | 0.0063 | -0.0319 | -0.0029 | -0.0408 | -0.0476 | -0.0369 | 0.0131 | -0.0426 | – | -0.0183 | 0.0016 | -0.0299 | 0.024 | -0.0322 | -0.0072 | -0.0227 | -0.0222 | -0.0611 | -0.0194 | -0.0052 |
| CN(CCO)CC[C@H](CSc1ccccc1)Nc1ccc(S(=O)(=O)NC(=O)c2ccc(N3CCC([C@@H](O)c4ccccc4-c4ccc(Cl)cc4)CC3)cc2)cc1S(=O)(=O)C(F)(F)F [AZD4320] + CN(C)CCCOc1ccc(-c2ccc3ncc4c(c3c2)n(C2CCOCC2)c(=O)n4C)cn1 [AZD0156] (first compound max 1 µM, 7x7, partner max 1 µM) | -0.0816 | -0.0322 | -0.0269 | -0.031 | -0.0472 | -0.0809 | 0.0237 | -0.0838 | – | -0.0566 | 0.0406 | -0.0094 | -0.0054 | -0.0262 | -0.057 | 0.0083 | -0.0539 | -0.0414 | -0.0133 | -0.0289 |
